pIC50: −log10 of the molar value.

Common to all, as to assay: Direct interaction assay
Assay type in all cases: binding

Assay [1] concerns Hum Tel quadruplex (Humtel-95). The text has this:
(§1) Direct Interaction Assay. Compounds may be evaluated for their ability to interact directly with nucleic acids capable of forming a quadruplex structure, wherein the nucleic acid is not a telomeric nucleic acid. The assay may be performed in the same or different vessels. For example, a compound may be contacted with each nucleic acid in the same vessel. Alternatively, a compound may be separately contacted with each of the nucleic acids tested in a different vessel. A telomeric nucleic acid as used herein represents a region of highly repetitive nucleic acid at the end of a chromosome. As used herein, a direct interaction is measured without the presence of a competitor nucleic acid.
(§2) An interaction between the compound and the nucleic acid may be determined for example, by measuring IC50 values, which are indicative of the binding and/or quadruplex stabilization. The selectivity of interactions may be determined, for example, by comparing measured IC50 values. For example, the-lowest IC50 values may be used to indicate a strong interaction between the compound and the nucleic acid, while highest IC50 values show a poor interaction; thus, showing selectivity of interaction. The reaction products were characterized by capillary electrophoresis.
(§3) Using a direct interaction assay, CX-3543 was screened for its ability to bind to and/or stabilize different types of quadruplexes. In this example, a 5′-fluorescent-labeled (FAM) primer (P45, 15 nM) is mixed with template DNA (15 nM) in a Tris-HCL buffer (15 mM Tris, pH 7.5) containing 10 mM MgCl2, 0.1 mM EDTA and 0.1 mM mixed deoxynucleotide triphosphates (dNTP's). The mixture is denatured at 95° C. for 5 minutes and, after cooling down to room temperature, is incubated at 37° C. for 15 minutes. After cooling down to room temperature, 1 mM KCl and the test compound at various concentrations are added, and the mixture incubated for 15 minutes at room temperature. The primer extension is performed by adding […] and Taq DNA Polymerase (2.5 U/reaction, Promega), and incubating at 70° C. for 20 minutes.

Assay [2] deals with BCl-2 quadruplex (BCL2-97).
Text: as §1, §2, §3

For the next assay, the system named is c-myc quadruplex (MYC99).
Text: as §1, §2, §3

In assay [3] the test system is TGF-β quadruplex (TGFB3-81).
Text: as §1, §2, §3

A further assay deals with SRC quadruplex (SRC89).
Text: as §1, §2, §3

A further assay relates to i-motif (IMOTIF99).
Text: as §1, §2, §3

For assay [4], the system named is HMGA-2 quadruplex (HMGA-97).
Text: as §1, §2, §3

For assay [5], the system named is H-RAS quadruplex (HRAS-85).
Text: as §1, §2, §3

In the case of `CN1CCCC1CCNC(=O)c1cn2c3c(c(N4CCC(c5cnccn5)C4)c(F)cc3c1=O)Oc1cc3ccccc3cc1-2` (stereo not shown) [CX-3543], the interaction with quadruplex entry was “less strongly” in assay [1] (Hum Tel, chair-eller / basket quadruplex); “less strongly” in assay [2] (BCl-2, chair-eller / basket quadruplex); “strongly” in the assay with c-myc quadruplex (MYC99) (c-myc, propeller quadruplex); “strongly” in assay [3] (TGF-β, propeller quadruplex); “weakly” in the assay on SRC quadruplex (SRC89) (SRC, heptad-tetrad); “weakly” in the assay with i-motif (IMOTIF99) (i-motif). The interaction with quadruplex entry is given as “weakly” in assay [4] (HMGA-2, heptad-tetrad) and “strongly” in assay [5] (H-RAS, propeller quadruplex). Further, the negative-log IC50 (pIC50) (in general, the negative decadic logarithm of the IC50, by convention in mol/L) was 5.48 in assay [1] (insert HumTel); 5.70 in assay [2] (insert BCL-2); 6.22 with c-myc quadruplex (MYC99) (insert c-MYC); 5.89 in assay [3] (insert TGF-β); below 5.00 with SRC quadruplex (SRC89) (insert SRC); below 5.00 in the assay with i-motif (IMOTIF99) (insert I-Motif). Further, the pIC50 in assay [4] (insert HMGA) is below 5.00; in assay [5] (insert H-RAS), 5.96.

These data come from patent US7507727B2, “Substituted quinobenzoxazine analogs and methods of using thereof” (Cylene Pharmaceuticals, Inc., priority 2003, dated 2009).
